Results from patent publication US20120040930A1, “TETRACYCLIC TERPENE SERIES COMPOUNDS, METHODS FOR PREPARING SAME, USES THEREOF AS MEDICINES AND PHARMACEUTICAL COMPOUNDS CONTAINING SAME” (priority 2005, published 2012).
Read-outs that look alike come from different tables or passages of the source.

How the values were obtained:
[1] = molecular target: T1, human serum butyrylcholinesterase (BChE) (Homo sapiens, UniProt P06276); experiment: biochemical
T1 construct: BChE isolated from human serum; from tissue; host or cells: human serum
T1 sequence (P06276 29-602): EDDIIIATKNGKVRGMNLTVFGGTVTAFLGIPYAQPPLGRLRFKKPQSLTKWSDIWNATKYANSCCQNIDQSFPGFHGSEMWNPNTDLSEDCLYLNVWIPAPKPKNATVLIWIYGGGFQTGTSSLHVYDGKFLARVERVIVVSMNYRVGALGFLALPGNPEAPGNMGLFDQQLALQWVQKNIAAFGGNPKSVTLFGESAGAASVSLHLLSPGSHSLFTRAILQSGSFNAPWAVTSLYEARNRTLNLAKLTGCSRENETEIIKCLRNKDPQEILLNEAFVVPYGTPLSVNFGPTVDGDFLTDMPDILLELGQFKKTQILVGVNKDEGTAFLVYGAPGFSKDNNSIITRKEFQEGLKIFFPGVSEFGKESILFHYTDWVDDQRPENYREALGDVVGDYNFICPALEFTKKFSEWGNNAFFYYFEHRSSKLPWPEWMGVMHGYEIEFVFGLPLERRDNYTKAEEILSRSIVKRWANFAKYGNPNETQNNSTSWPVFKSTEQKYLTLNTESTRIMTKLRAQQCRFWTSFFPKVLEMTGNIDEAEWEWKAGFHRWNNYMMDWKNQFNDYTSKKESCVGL

[2] = molecular target: T2, acetylcholinesterase (AChE) isolated from Electrophorus electricus (Electrophorus electricus, UniProt O42275); experiment: biochemical
T2 construct: AChE isolated from Electrophorus electricus; from tissue
T2 sequence (O42275 24-633): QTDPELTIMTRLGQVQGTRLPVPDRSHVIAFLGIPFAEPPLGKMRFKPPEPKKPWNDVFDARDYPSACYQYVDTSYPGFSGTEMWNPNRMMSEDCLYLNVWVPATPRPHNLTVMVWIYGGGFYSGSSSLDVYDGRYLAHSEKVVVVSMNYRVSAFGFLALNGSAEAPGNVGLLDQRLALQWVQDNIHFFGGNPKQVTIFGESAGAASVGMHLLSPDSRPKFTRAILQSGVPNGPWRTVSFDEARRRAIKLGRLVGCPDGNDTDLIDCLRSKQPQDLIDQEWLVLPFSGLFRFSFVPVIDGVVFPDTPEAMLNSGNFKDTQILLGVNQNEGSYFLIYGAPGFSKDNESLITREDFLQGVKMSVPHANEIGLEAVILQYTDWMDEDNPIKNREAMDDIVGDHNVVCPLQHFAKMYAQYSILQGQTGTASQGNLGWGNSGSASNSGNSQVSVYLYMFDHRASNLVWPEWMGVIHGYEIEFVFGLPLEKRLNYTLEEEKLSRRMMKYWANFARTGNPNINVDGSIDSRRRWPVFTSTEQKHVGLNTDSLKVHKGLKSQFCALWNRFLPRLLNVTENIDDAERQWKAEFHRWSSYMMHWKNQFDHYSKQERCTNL

[3] = human serum BChE, read-out: BChE
[4] = AChE isolated from Electrophorus electricus, read-out: AChE IC50

In the case of C[C@@H]([C@H]1[C@H](O)C[C@@]2(C)[C@@H]3CC[C@@H]4C(=CC[C@H](N)[C@@]4(C)CO)C[C@H]3C(=O)C[C@]12C)N(C)C [Compound 11, (20S)-10(9->1)abeo-3-amino-4α-hydroxymethyl-4,14α-dimethyl-20-dimethylamino-5α,9-pregn-1(10)-en-16α-ol-11-one], the IC50 [1, 3] is reported as > 10 µM and the IC50 [2, 4] is reported as 1.5 µM.

In the case of CCC(CC)C1=N[C@H]2CC=C3C[C@H]4C(=O)C[C@]5(C)[C@@H]([C@H](C)N(C)C)[C@H](O)C[C@@]5(C)[C@@H]4CC[C@H]3[C@]2(C)CO1 [Compound 8i, (20S)-10(9->1)abeo-4,14α-dimethyl-20-dimethylamino(2′-(1-ethylpropyl)-4′,4′-dihydro[3′,1′]oxazin)-5α,9-pregn-1(10)-en-16α-ol-11-one], the IC50 [1, 3] is reported as 0.38 µM.

Work on CC(C)C(=O)N[C@H]1CCC23C[C@]24C(=O)C[C@]2(C)[C@@H]([C@H](C)N(C)C)[C@H](O)C[C@@]2(C)[C@@H]4CC[C@H]3[C@]1(C)COCc1ccccc1 (stereo partly drawn) [Compound 27] yielded an IC50 [1, 3] of 5.2 µM and an IC50 [2, 4] of 16.8 µM.

Work on CC(C)C1=NC2CC[C@H]3C=C4C(=O)C[C@]5(C)[C@@H]([C@H](C)N(C)C)[C@H](O)C[C@@]5(C)[C@@H]4CC[C@H]3[C@]2(C)CO1 (stereo partly drawn) [Compound 32, (20S)-9(10->19)abeo-4,14α-dimethyl-20-dimethylamino(2′-isopropyl-4′,4′-dihydro[3′,1′]oxazin)-5α,9-pregn-1(10)-en-16α-ol-11-one] yielded an IC50 [1] of 1.44 µM and an IC50 [2, 4] of 0.112 µM.

With C[C@@H]([C@H]1[C@H](O)C[C@@]2(C)[C@@H]3CC[C@@H]4C(=CC[C@@H]5N=C(C6CCCCC6)OC[C@]54C)C[C@H]3C(=O)C[C@]12C)N(C)C [Compound 8d, (20S)-10(9->1)abeo-4,14α-dimethyl-20-dimethylamino(2′-cyclohexyl-4′,4′-dihydro[3′,1′]oxazin)-5α,9-pregn-1(10)-en-16α-ol-11-one] the IC50 [1, 3] was 0.375 µM and the IC50 [2, 4] was 0.403 µM.

For C[C@@H]([C@H]1[C@H](O)C[C@@]2(C)[C@@H]3CC[C@@H]4C(=CC[C@@H]5N=C(Cc6ccccc6)OC[C@]54C)C[C@H]3C(=O)C[C@]12C)N(C)C [Compound 8g, (20S)-10(9->1)abeo-4,14α-dimethyl-20-dimethylamino-(2′-(1-benzyl)-4′,4′-dihydro[3′,1′]oxazine)-5α,9-pregn-1(10)-en-16α-ol-11-one], the IC50 [1, 3] was > 10 µM.

With CC[C@H](C)C(=O)N[C@H]1CCC23C[C@]24C(=O)C[C@]2(C)[C@@H]([C@H](C)N(C)C)[C@H](O)C[C@@]2(C)[C@@H]4CC[C@H]3[C@]1(C)/C=N/Cc1ccccc1 (stereo partly drawn) [Compound 61, (20S)-20-dimethylamino-3β-((S)-2-methylbutyrylamino)-9,19-cyclo-4α-benzyliminomethyl-4β,14α-dimethyl-5α,9β-pregnan-16α-ol-11-one] the IC50 [2, 4] was > 100 µM.

With CC(C)C(=O)N[C@H]1CCC23C[C@]24C(=O)C[C@]2(C)[C@@H]([C@H](C)N(C)C)[C@H](O)C[C@@]2(C)[C@@H]4CC[C@H]3[C@]1(C)CNC([Si](C)(C)C)[Si](C)(C)C (stereo partly drawn) [Compound 55, (20S)-3β-isobutyrylamino-20-dimethylamino-9,19-cyclo-4β,14α-dimethyl-4α-(bis-(trimethylsilanyl)methylamino)methyl-5α,9β-pregnan-16α-ol-11-one] the IC50 [2, 4] was > 100 µM.

For CC(C)C1=N[C@H]2CCC34C[C@]35C(=O)C[C@]3(C)[C@@H]([C@H](C)N(C)C)[C@H](OC(=O)C(C)(C)C)C[C@@]3(C)[C@@H]5CC[C@H]4[C@]2(C)CO1 (stereo partly drawn) [Compound 38, (20S)-20-dimethylamino-9,19-cyclo-4β,14α-dimethyl-16α-pivalyl-(2′-isopropyl-3,29-dihydro-4H-[1,3]-oxazine)-5α,9β-pregn-11-one], the IC50 [2, 4] was 0.181 µM.

C[C@@H]([C@H]1[C@H](O)C[C@@]2(C)[C@@H]3CC[C@@H]4C5(CC[C@H](NC(=O)Cc6ccccc6)[C@@]4(C)CO)C[C@@]35C(=O)C[C@]12C)N(C)C (stereo partly drawn) [Compound 6g, (20S)-9,19-cyclo-4α-hydroxymethyl-4,14α-dimethyl-20-dimethylamino-3 (phenylacetylamino)-5α,9-pregnan-16α-ol-11-one] was tested, and the IC50 [2, 4] was > 5 µM.

For CN[C@@H](C)[C@H]1[C@H](OC(=O)C(C)(C)C)C[C@@]2(C)[C@@H]3CC[C@@H]4C5(CC[C@H](NC(=O)C(C)C)[C@@]4(C)C=O)C[C@@]35C(=O)C[C@]12C (stereo partly drawn) [Compound 43, (20S)-3β-isobutyrylamino-20-methylamino-9,19-cyclo-4β,14α-dimethyl-4α-formyl-16α-pivalyl-5α,9β-pregnan-11-one], the IC50 [2, 4] was > 100 µM.

CC(C)C(=O)N[C@H]1CC=C2C[C@H]3C(=O)C[C@]4(C)[C@@H]([C@H](C)N(C)C)[C@H](O)C[C@@]4(C)[C@@H]3CC[C@H]2[C@]1(C)CO [Compound 3, (20S)-10(9->1)abeo-4α-hydroxymethyl-3-isobutyrylamino-4,14α-dimethyl-20-dimethylamino-5α,9-pregn-1(10)-en-16α-ol-11-one] gave an IC50 [1, 3] of 7.41 µM.

In the case of CC(C)C(=O)N[C@H]1CCC23C[C@]24C(=O)C[C@]2(C)[C@@H]([C@H](C)N(C)C)[C@H](O)C[C@@]2(C)[C@@H]4CC[C@H]3[C@]1(C)CN (stereo partly drawn) [Compound 49, (20S)-20-dimethylamino-3β-(isobutyrylamino)-9,19-cyclo-4α-aminomethyl-4β,14α-dimethyl-5α,9β-pregnan-16α-ol-11-one], the IC50 ([2]; AChE IC50) is reported as 1.34 µM.

CC(C)C1=NC2CCC34C[C@]35C(=O)C[C@]3(C)[C@@H]([C@H](C)N(C)C)[C@H](O)C[C@@]3(C)[C@@H]5CC[C@H]4[C@]2(C)CN1 (stereo partly drawn) [Compound 51, (20S)-20-dimethylamino-9,19-cyclo-4β,14α-dimethyl-(2-isopropyl-5β-methyl-1,4,5,6-tetrahydro-pyrimidin-5-yl)-5α,9β-pregnan-16α-ol-11-one] showed an IC50 ([2]; AChE IC50) of 0.018 µM.

With CC(C)C(=O)N[C@H]1CCC23C[C@]24C(=O)C[C@]2(C)[C@@H]([C@H](C)N(C)C)[C@H](OC(=O)C(C)(C)C)C[C@@]2(C)[C@@H]4CC[C@H]3[C@]1(C)CNC([Si](C)(C)C)[Si](C)(C)C (stereo partly drawn) [Compound 56, (20S)-3β-isobutyrylamino-20-dimethylamino-9,19-cyclo-4β,14α-dimethyl-4α-(bis-(trimethylsilanyl)methylamino)methyl-16α-pivalyl-5α,9β-pregnan-11-one] the IC50 [2, 4] was > 100 µM.

For CC(C)C(=O)N[C@H]1CCC23C[C@]24C(=O)C[C@]2(C)[C@@H]([C@H](C)N(C)C)[C@H](OC(=O)C(C)(C)C)C[C@@]2(C)[C@@H]4CC[C@H]3[C@]1(C)/C=N/C([Si](C)(C)C)[Si](C)(C)C (stereo partly drawn) [Compound 54, (20S)-3β-isobutyrylamino-20-dimethylamino-9,19-cyclo-4β,14α-dimethyl-4α-(bis-(trimethylsilanyl)methylimino)methyl-16α-pivalyl-5α,9β-pregnan-11-one], the IC50 [2, 4] was > 100 µM.

For CC[C@H](C)C(=O)N[C@H]1CCC23C[C@@]24[C@@H](CC[C@H]3[C@]1(C)CO)[C@]1(C)C[C@@H](O)[C@H]([C@H](C)N(C)C)[C@@]1(C)C[C@@H]4O (stereo partly drawn) [Compound 35, (20S)-20-dimethylamino-3β-((S)-2-methylbutyrylamino)-9,19-cyclo-4α-hydroxymethyl-4β,14α-dimethyl-5α,9β-pregnan-11β,16α-diol-11-one], the IC50 [2, 4] was > 100 µM.

CC(C)C(=O)N[C@H]1CCC23C[C@]24C(=O)C[C@]2(C)[C@@H]([C@H](C)N(C)C)[C@H](O)C[C@@]2(C)[C@@H]4CC[C@H]3[C@]1(C)/C=N/Cc1ccccc1 (stereo partly drawn) [Compound 45, (20S)-20-dimethylamino-3β-(isobutyrylamino)-9,19-cyclo-4α-benzyliminomethyl-4β,14α-dimethyl-5α,9β-pregnan-16α-ol-11-one] was tested, and the IC50 [2, 4] was > 100 µM.

In the case of Cc1ccc(S(=O)(=O)O[C@@H]2C[C@@]3(C)[C@@H]4CC[C@@H]5C6(CC[C@H](NC(=O)C(C)C)[C@@]5(C)CO)C[C@@]46C(=O)C[C@]3(C)[C@H]2[C@H](C)N(C)C)cc1 (stereo partly drawn) [Compound 36, (20S)-3β-isobutyrylamino-20-dimethylamino-9,19-cyclo-4β,14α-dimethyl-4α-hydroxymethyl-16α-tosyl-5α,9β-pregnan-11-one], the IC50 [2, 4] is reported as > 100 µM.

Molecule CC(C)C(=O)NC1CCC23C[C@]24C(=O)C[C@]2(C)[C@@H]([C@H](C)N(C)C)[C@H](OC(=O)C(C)(C)C)C[C@@]2(C)[C@@H]4CC[C@H]3[C@]1(C)CN (stereo partly drawn) [Compound 50, (20S)-3β-isobutyrylamino-20-dimethylamino-9,19-cyclo-4α-aminomethyl-4β,14α-dimethyl-16α-pivalyl-5α,9β-pregnan-11-one] has an IC50 [2, 4] of 1.33 µM.

CC(C)C(=O)N[C@H]1CCC23C[C@]24C(=O)C[C@]2(C)[C@@H]([C@H](C)N(C)C)[C@H](OS(C)(=O)=O)C[C@@]2(C)[C@@H]4CC[C@H]3[C@]1(C)CO (stereo partly drawn) [Compound 37, (20S)-3β-isobutyrylamino-20-dimethylamino-9,19-cyclo-4β,14α-dimethyl-4α-hydroxymethyl-16α-mesyl-5α,9β-pregnan-11-one] was tested, and the IC50 [2, 4] was ≥ 100 µM.

CC[C@H](C)C(=O)N[C@H]1CCC23C[C@]24C(=O)C[C@]2(C)[C@@H]([C@H](C)N(C)C)[C@H](O)C[C@@]2(C)[C@@H]4CC[C@H]3[C@]1(C)C=O (stereo partly drawn) [Compound 60, (20S)-20-dimethylamino-3β-((S)-2-methylbutyrylamino)-9,19-cyclo-4α-formyl-4β,14α-dimethyl-5α,9β-pregnan-16α-ol-11-one] was tested, and the IC50 [2, 4] was > 100 µM.

With CC[C@H](C)C(=O)N[C@H]1CC=C2C[C@H]3C(=O)C[C@]4(C)[C@@H]([C@H](C)N(C)C)[C@H](O)C[C@@]4(C)[C@@H]3CC[C@H]2[C@]1(C)CNCc1ccccc1 [Compound 69, (20S)-10(9->1)abeo-20-dimethylamino-3β-((S)-2-methylbutyrylamino)-4α-benzylaminomethyl-4β,14α-dimethyl-5α,9β-pregn-1(10)-en-16α-ol-11-one] the IC50 [2, 4] was > 100 µM.
